In patent US20250092065A1, “2-(INDAZOL-5-YL)-6-(PIPERIDIN-4-YL)-1,7-NAPHTHYRIDINE DERIVATIVES AND RELATED COMPOUNDS AS MODULATORS FOR SPLICING NUCLEIC ACIDS AND FOR THE TREATMENT OF PROLIFERATIVE DISEASES” (REMIX THERAPEUTICS INC., priority 2022, published 2025):
Like-named read-outs stand apart in the source and are kept apart here.

How the values were obtained:
HTT = assay: HiBiT protein abundance assay, HTT (K562 HiBiT knock-in); type: cell-based, human; settings: HiBiT knock-in K562 cells, 24 hours, top dose 10 μM
Summary of the method: (§1)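 Luminescence readout: Nano-Glo HiBiT lytic detection after 24 h compound exposure of K562 HiBiT knock-in cells, 10000 cells/well. Dosing 10-pt, 3-fold, top 10 μM final. % response vs untreated parental K562 and DMSO controls; 4PL fit, IC50 = concentration giving 50% protein abundance.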

K562 cells = assay: Cell Titer Glo 2.0 cell viability (toxicity) assay, K562; settings: 500 cells/well, 72 hours
Target C = assay: HiBiT protein abundance assay, Target C (K562 HiBiT knock-in); type: cell-based, human; settings: HiBiT knock-in K562 cells, 24 hours, top dose 10 μM
Summary of the method: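 K562 HiBiT knock-in cells (10000/well) were treated 24 h at 37° C with a 10-point 3-fold dilution series (top 10 μM final, ≤0.25% DMSO). HiBiT luminescence was read after lytic LgBiT detection. Percent response used unmodified K562 and DMSO-treated knock-in controls, and IC50 came from a four-parameter fit at 50% of untreated.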

SMN2 mRNA = assay: RT-qPCR splicing assay, SMN2 mRNA; type: cell-based, human; settings: Homo sapiens, canonical junction qPCR panel, Table 4; read-out: SMN2 IC50 (decrease in CJ mRNA levels)
Summary of the method: (§2)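 A673 or K562 cells treated 24 h at 37 °C with 11-point 3-fold dilutions (top final 10 uM, DMSO ≤0.25%). Lysates analysed by one-step RT-qPCR for canonical (CJ) and alternative-exon (AJ) junctions, normalized to GAPDH, GUSB or PPIA. ΔΔCt vs DMSO, RQ = 2^(−ΔΔCt), expressed as percentage response.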

HTT mRNA = assay: RT-qPCR splicing assay, HTT mRNA canonical (CJ) and alternative (AJ) junction; type: cell-based, human; settings: Homo sapiens; for AC50: HTT alternative junction mRNA, read-out: HTT AJ (increase in AJ mRNA, AC50)
Summary of the method: as §2

MYB mRNA = assay: RT-qPCR splicing assay, MYB mRNA canonical (CJ) and alternative (AJ) junction; type: cell-based, human; settings: Homo sapiens; for AC50: MYB alternative junction mRNA, read-out: MYB AJ (increase in AJ mRNA, AC50)
Summary of the method: as §2

MYB = assay: HiBiT protein abundance assay, MYB (K562 HiBiT knock-in); type: cell-based, human; settings: HiBiT knock-in K562 cells, 24 hours, top dose 10 μM
Summary of the method: as §1

[1] = HTT canonical junction mRNA, RT-qPCR, read-out: HTT CJ (decrease in CJ mRNA levels, IC50)
[2] = canonical junction qPCR panel, Table 4, read-out: HTT IC50 (decrease in CJ mRNA levels)
[3] = MYB canonical junction mRNA, RT-qPCR, read-out: MYB CJ (decrease in CJ mRNA levels, IC50)
[4] = canonical junction qPCR panel, Table 4, read-out: MYB IC50 (decrease in CJ mRNA levels)

| IC50 (HTT) [nM] | IC50 (Target C) [nM] | IC50 (SMN2 mRNA) [nM] | IC50 (HTT mRNA; [1]) [nM] | IC50 (HTT mRNA; [2]) [nM] | IC50 (MYB mRNA; [3]) [nM] | IC50 (MYB mRNA; [4]) [nM] | IC50 (MYB) [nM] | SMILES | Effect of Exemplary Compounds on Cell Viability, K562 (K562 cells) | AC50 (HTT mRNA; RT-qPCR) [nM] | AC50 (MYB mRNA; RT-qPCR) [nM] |
| --- | --- | --- | --- | --- | --- | --- | --- | --- | --- | --- | --- |
| < 100 | < 100 | < 100 | 100 to 1000 | 100 to 1000 | 1000 to 10000 | 1000 to 10000 | < 100 | Cc1nc2cc(O)c(-c3ccc4nc(N5CC[C@@H](NC(C)(C)C)C5)ccc4n3)cc2o1 [Compound 210] | A (A represents <100 nM) | 1000 to 10000 | 1000 to 10000 |
| < 100 | < 100 | < 100 | < 100 | < 100 | < 100 | < 100 | < 100 | Cc1nc2cc(O)c(-c3ccc4nc(N5CC[C@H](NC6CC6)C5)ccc4n3)cc2o1 [Compound 211] | B (B represents 100-1000 nM) | < 100 | < 100 |
| < 100 | < 100 | < 100 | < 100 | < 100 | < 100 | < 100 | < 100 | Cc1nc2c(C)c(O)c(-c3ccc4nc(N5CC[C@@H](NC(C)(C)C)C5)ccc4n3)cc2o1 [Compound 215] | A (A represents <100 nM) | < 100 | < 100 |
| < 100 | < 100 | < 100 | < 100 | < 100 | < 100 | < 100 | < 100 | Cn1cc2cc(-c3ccc4nc(N5CC[C@H](NC6(C)CC6)C5)ccc4n3)c(O)cc2n1 [Compound 221] | B (B represents 100-1000 nM) | < 100 | < 100 |
| < 100 | < 100 | < 100 | < 100 | < 100 | < 100 | < 100 | < 100 | Cc1c(O)c(-c2ccc3nc(N4CC[C@@H](NC5(C)CC5)C4)ccc3n2)cc2cn(C)nc12 [Compound 225] | B (B represents 100-1000 nM) | < 100 | < 100 |
| < 100 | < 100 | < 100 | < 100 | < 100 | < 100 | < 100 | < 100 | Cc1c(O)c(-c2ccc3nc(N4CC[C@H](NC5(C)CC5)C4)ccc3n2)cc2cn(C)nc12 [Compound 226] | B (B represents 100-1000 nM) | < 100 | 100 to 1000 |
| < 100 | < 100 | < 100 | < 100 | < 100 | < 100 | < 100 | < 100 | Cc1nc2cc(O)c(-c3ccc4nc(N5CC[C@@H](NC(C)C)C5)ccc4n3)cc2o1 [Compound 232] | A (A represents <100 nM) | < 100 | < 100 |
| < 100 | < 100 | < 100 | < 100 | < 100 | < 100 | < 100 | < 100 | Cc1nc2cc(O)c(-c3ccc4nc(N5CC[C@H](NC(C)C)C5)ccc4n3)cc2o1 [Compound 233] | B (B represents 100-1000 nM) | < 100 | < 100 |
| < 100 | < 100 | < 100 | < 100 | < 100 | < 100 | < 100 | < 100 | Cn1cc2cc(-c3ccc4nc(N5CCC(N)C5)ccc4n3)c(O)c(F)c2n1 (centres unmarked) [Compound 238] | A (A represents <100 nM) | < 100 | < 100 |
| 1000 to 10000 | > 10000 | 1000 to 10000 | > 10000 | > 10000 | > 10000 | > 10000 | > 10000 | Cn1cc2cc(-c3ccc4nc(N5CC[C@@H](NCC(F)(F)F)C5)ccc4n3)c(O)cc2n1 [Compound 245] | D (D represents greater than 10 μM in K562 cells) | > 10000 | > 10000 |

The remaining lines, values behind:

| SMILES | IC50 (HTT) [nM] | IC50 (Target C) [nM] | IC50 (SMN2 mRNA) [nM] | IC50 (HTT mRNA; [1]) [nM] | IC50 (HTT mRNA; [2]) [nM] | IC50 (MYB mRNA; [3]) [nM] | IC50 (MYB mRNA; [4]) [nM] | IC50 (MYB) [nM] | Effect of Exemplary Compounds on Cell Viability, K562 (K562 cells) | AC50 (HTT mRNA; RT-qPCR) [nM] | AC50 (MYB mRNA; RT-qPCR) [nM] |
| --- | --- | --- | --- | --- | --- | --- | --- | --- | --- | --- | --- |
| Cc1nc2cc(O)c(-c3ccc4nc(N5CC[C@@H](NC6CC6)C5)ccc4n3)cc2o1 [Compound 212] | < 100 | 100 to 1000 | < 100 | < 100 | < 100 | 100 to 1000 | 100 to 1000 | 100 to 1000 | B (B represents 100-1000 nM) | < 100 | 100 to 1000 |
| Cn1cc2cc(-c3cc4ccc(N5CCC(NC(C)(C)C)C5)nc4cn3)c(O)cc2n1 (centres unmarked) [Compound 218] | > 10000 | > 10000 | 100 to 1000 | > 10000 | > 10000 | > 10000 | > 10000 | 1000 to 10000 | C (C represents 1000-9999 nM) | > 10000 | 1000 to 10000 |
| Cn1cc2cc(-c3ccc4nc(N5CC[C@@H](NC6(C)CC6)C5)ccc4n3)c(O)cc2n1 [Compound 220] | < 100 | < 100 | < 100 | < 100 | < 100 | < 100 | < 100 | < 100 | A (A represents <100 nM) | < 100 | < 100 |
| Cn1cc2cc(-c3ccc4nc(N5CC[C@H](NC6(C)CC6)C5)ccc4n3)c(O)c(F)c2n1 [Compound 222] | < 100 | < 100 | < 100 | < 100 | < 100 | < 100 | < 100 | < 100 | B (B represents 100-1000 nM) | < 100 | < 100 |
| Cn1cc2cc(-c3ccc4nc(N5CC[C@@H](NC6(C)CC6)C5)ccc4n3)c(O)c(F)c2n1 [Compound 223] | < 100 | < 100 | < 100 | < 100 | < 100 | < 100 | < 100 | < 100 | A (A represents <100 nM) | < 100 | < 100 |
| Cc1c(O)c(-c2ccc3nc(N4CCC(NC5(C)CC5)C4)ccc3n2)cc2cn(C)nc12 (centres unmarked) [Compound 224] | < 100 | < 100 | < 100 | < 100 | < 100 | < 100 | < 100 | < 100 | B (B represents 100-1000 nM) | < 100 | < 100 |
| Cc1nc2cc(O)c(-c3ccc4nc(N5CCC(NC6CCC6)C5)ccc4n3)cc2o1 (centres unmarked) [Compound 228] | < 100 | 100 to 1000 | < 100 | < 100 | < 100 | 100 to 1000 | 100 to 1000 | < 100 | B (B represents 100-1000 nM) | < 100 | < 100 |
| Cc1nc2cc(O)c(-c3ccc4nc(N5CCC(N)C5)ccc4n3)cc2o1 (centres unmarked) [Compound 234] | < 100 | < 100 | < 100 | 100 to 1000 | 100 to 1000 | 100 to 1000 | 100 to 1000 | < 100 | A (A represents <100 nM) | < 100 | < 100 |
| Cn1cc2cc(-c3ccc4nc(N5CC[C@@H](N[C@H]6C[C@H](F)C6)C5)ccc4n3)c(O)cc2n1 [Compound 246] | < 100 | < 100 | < 100 | < 100 | < 100 | < 100 | < 100 | < 100 | B (B represents 100-1000 nM) | < 100 | < 100 |
